Reference: ChEMBL document CHEMBL1268880, “Investigation of 4-piperidinols as novel H3 antagonists” (Bioorg Med Chem Lett, 2010)

Key:
[1] = molecular target: Histamine H3 receptor (Mus musculus, UniProt P58406); assay: Antagonist activity against mouse histamine H3 receptor expressed in human HT1080 cells assessed as inhibition of (R)-alpha-methylhistamine-induced increase in intracellular calcium level by FLIPR assay; assay type: functional, cell-based, HT-1080
[2] = molecular target: Histamine H3 receptor (Homo sapiens, UniProt Q9Y5N1); assay: Antagonist activity against human histamine H3 receptor expressed in human HT1080 cells assessed as inhibition of (R)-alpha-methylhistamine-induced increase in intracellular calcium level by FLIPR assay; assay type: functional, cell-based, HT-1080
[3] = molecular target: T1, hERG (KCNH2) (Homo sapiens, UniProt Q12809); assay: Inhibition of human ERG at 10 uM
[4] = Selectivity ratio of IC50 for mouse histamine H3 receptor to IC50 for human histamine H3 receptor
[5] = molecular target: T1, hERG (KCNH2); assay: Inhibition of human ERG at 50 uM

Histamine H3 receptor (Homo sapiens, UniProt Q9Y5N1), sequence (Q9Y5N1 whole entry): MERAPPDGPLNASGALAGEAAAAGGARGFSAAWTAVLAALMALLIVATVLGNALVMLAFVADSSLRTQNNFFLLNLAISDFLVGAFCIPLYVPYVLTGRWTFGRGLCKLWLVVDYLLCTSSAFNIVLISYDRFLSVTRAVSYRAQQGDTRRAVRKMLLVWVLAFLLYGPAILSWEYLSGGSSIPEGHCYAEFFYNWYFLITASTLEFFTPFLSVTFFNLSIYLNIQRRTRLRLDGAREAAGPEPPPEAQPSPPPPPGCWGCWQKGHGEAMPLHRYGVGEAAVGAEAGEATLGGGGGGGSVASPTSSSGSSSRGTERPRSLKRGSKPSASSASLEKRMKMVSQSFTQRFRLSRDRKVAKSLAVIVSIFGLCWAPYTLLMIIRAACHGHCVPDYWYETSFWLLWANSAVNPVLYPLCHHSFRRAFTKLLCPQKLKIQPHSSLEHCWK
T1 sequence (Q12809 whole entry): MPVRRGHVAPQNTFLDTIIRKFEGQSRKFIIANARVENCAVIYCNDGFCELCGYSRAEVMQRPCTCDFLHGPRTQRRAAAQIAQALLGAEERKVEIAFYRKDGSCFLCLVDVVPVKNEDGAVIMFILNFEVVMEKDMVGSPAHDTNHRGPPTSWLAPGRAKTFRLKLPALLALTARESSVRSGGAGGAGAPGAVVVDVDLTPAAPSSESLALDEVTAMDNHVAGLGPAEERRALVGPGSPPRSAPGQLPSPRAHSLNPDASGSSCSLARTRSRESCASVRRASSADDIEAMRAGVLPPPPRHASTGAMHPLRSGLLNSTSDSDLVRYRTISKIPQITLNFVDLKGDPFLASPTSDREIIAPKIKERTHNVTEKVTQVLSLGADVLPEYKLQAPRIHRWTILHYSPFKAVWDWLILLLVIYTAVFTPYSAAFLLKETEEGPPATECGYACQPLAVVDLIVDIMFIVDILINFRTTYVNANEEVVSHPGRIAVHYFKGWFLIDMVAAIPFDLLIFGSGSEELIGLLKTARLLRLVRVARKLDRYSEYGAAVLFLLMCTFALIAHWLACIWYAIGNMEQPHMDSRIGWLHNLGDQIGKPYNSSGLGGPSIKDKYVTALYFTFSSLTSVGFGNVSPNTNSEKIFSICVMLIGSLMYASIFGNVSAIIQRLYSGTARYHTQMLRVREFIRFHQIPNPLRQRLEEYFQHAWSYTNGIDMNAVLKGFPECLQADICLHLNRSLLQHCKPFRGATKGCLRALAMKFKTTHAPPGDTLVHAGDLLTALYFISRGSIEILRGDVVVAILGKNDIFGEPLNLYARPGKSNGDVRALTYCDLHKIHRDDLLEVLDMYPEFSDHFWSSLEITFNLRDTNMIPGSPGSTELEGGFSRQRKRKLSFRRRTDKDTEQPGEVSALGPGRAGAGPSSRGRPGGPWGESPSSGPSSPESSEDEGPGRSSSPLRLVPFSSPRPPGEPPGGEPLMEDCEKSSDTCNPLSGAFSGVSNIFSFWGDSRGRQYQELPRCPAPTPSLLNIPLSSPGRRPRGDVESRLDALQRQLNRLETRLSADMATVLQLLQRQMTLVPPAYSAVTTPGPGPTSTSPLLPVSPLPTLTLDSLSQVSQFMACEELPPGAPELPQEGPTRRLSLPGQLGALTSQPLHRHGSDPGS
Histamine H3 receptor (Mus musculus, UniProt P58406), sequence (P58406 whole entry): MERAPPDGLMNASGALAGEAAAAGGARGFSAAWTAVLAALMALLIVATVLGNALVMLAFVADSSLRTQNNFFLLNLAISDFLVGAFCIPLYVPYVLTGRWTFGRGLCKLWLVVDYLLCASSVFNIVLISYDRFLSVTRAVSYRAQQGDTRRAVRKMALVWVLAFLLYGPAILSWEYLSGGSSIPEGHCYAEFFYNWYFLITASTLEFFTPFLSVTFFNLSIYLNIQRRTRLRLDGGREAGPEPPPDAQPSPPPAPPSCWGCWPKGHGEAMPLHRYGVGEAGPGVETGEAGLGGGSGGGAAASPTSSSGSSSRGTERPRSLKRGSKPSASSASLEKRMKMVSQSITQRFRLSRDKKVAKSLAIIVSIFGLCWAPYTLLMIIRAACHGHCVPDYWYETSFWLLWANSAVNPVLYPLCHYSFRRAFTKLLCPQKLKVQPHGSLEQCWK

SMILES | IC50 [1] | IC50 [2] | Ratio IC50 [4] | inhibition at 10 µM [3] | inhibition at 50 µM [5]
C[C@@H]1C[C@@](O)(CCc2cccc3ccccc23)[C@@H](C)CN1C | 85 nM | 2 nM | – | 16% | –
CC1CC(O)(CCc2ccc3ccccc3c2)C(C)CN1C (racemic) | 122 nM | 2 nM | – | 0% | –
CC1CC(O)(/C=C/c2cccc3ccccc23)C(C)CN1C (racemic) | 570 nM | 20 nM | – | 20% | –
CC1CN2CCCC2CC1(O)CCc1cccc2ccccc12 (racemic) | 345 nM | 14 nM | – | – | –
CC1CC(O)(C#Cc2ccc3ccccc3c2)C(C)CN1C (racemic) | 810 nM | 84 nM | – | – | –
CC(=O)OC1(C#Cc2cccc3ccccc23)CC(C)N(C)CC1C (racemic) | > 10000 nM | 5510 nM | – | – | –
NC(=NCc1ccc(Cl)cc1)SCCCc1cnc[nH]1 [CLOBENPROPIT] | 1 nM | – | – | – | –
CC1CC(O)(C#Cc2cccc3cccnc23)C(C)CN1C (racemic) | 9730 nM | 709 nM | – | – | –
CC1CC(O)(C#Cc2cccc3ncccc23)C(C)CN1C (racemic) | 690 nM | 12 nM | – | 3% | –
CC1CC(O)(CCc2cccc3ccccc23)C(C)CN1C (racemic) | 480 nM | 17 nM | – | 15% | –

Further lines, with some results ahead:

IC50 [1] | IC50 [2] | Ratio IC50 [4] | SMILES | inhibition at 10 µM [3] | inhibition at 50 µM [5]
1320 nM | 41 nM | – | C[C@@H]1CN(C)[C@@H](C)C[C@]1(O)C#Cc1cccc2ccccc12 | – | –
280 nM | 5 nM | – | CC1CN2CCCC2CC1(O)C#Cc1cccc2ccccc12 (racemic) | 23% | –
280 nM | 11 nM | – | CC1CC(O)(C#Cc2cccc3ccccc23)C(C)CN1C (racemic) | – | –
119 nM | 9 nM | 13 | C[C@@H]1C[C@@](O)(C#Cc2cccc3ccccc23)[C@@H](C)CN1C | – | 15%
